Results on one cell line are retold here after the supplement of paper PMC10307832.

What all share (assay): relative viability (nuclei count vs DMSO), 5 days (fraction); higher = more cells survive
Compound in the assay “BAY61-3606 + Phenformin”: COC1=C(C=C(C=C1)C2=CC3=NC=CN3C(=N2)NC4=C(C=CC=N4)C(=O)N)OC [BAY61-3606] + N=C(N)NC(=N)NCCc1ccccc1 [Phenformin] (partner 250 µM)
The essentials:
(§1)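 One day after seeding in 1536-well plates, lung cancer cell lines were dosed by pin tool. Dosing was either single-drug or a fixed anchor-drug dose plus five library-drug doses (not always all listed) in √10 steps. After 5 days, nuclei were stained in one fix-and-stain step and counted on 4× images, and relative viability is the nuclei count of treated wells over that of vehicle wells, given as the median of duplicate plates.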

Compound in the assay “Doxorubicin + Pemetrexed”: COc1cccc2c1C(=O)c1c(O)c3c(c(O)c1C2=O)C[C@@](O)(C(=O)CO)C[C@@H]3O[C@H]1C[C@H](N)[C@H](O)[C@H](C)O1 [Doxorubicin] + Nc1nc2[nH]cc(CCc3ccc(C(=O)N[C@@H](CCC(=O)O)C(=O)O)cc3)c2c(=O)[nH]1 [Pemetrexed] (partner 0.2 µM)
The procedure, abridged:
as §1

Compound in the assay “Doxorubicin + Foretinib”: COc1cccc2c1C(=O)c1c(O)c3c(c(O)c1C2=O)C[C@@](O)(C(=O)CO)C[C@@H]3O[C@H]1C[C@H](N)[C@H](O)[C@H](C)O1 [Doxorubicin] + COc1cc2c(Oc3ccc(NC(=O)C4(C(=O)Nc5ccc(F)cc5)CC4)cc3F)ccnc2cc1OCCCN1CCOCC1 [Foretinib] (partner 0.25 µM)
The essentials:
as §1

Compound in the assay “BAY61-3606 + Pictilisib”: COC1=C(C=C(C=C1)C2=CC3=NC=CN3C(=N2)NC4=C(C=CC=N4)C(=O)N)OC [BAY61-3606] + CS(=O)(=O)N1CCN(Cc2cc3nc(-c4cccc5[nH]ncc45)nc(N4CCOCC4)c3s2)CC1 [Pictilisib] (partner 1 µM)
The procedure, abridged:
as §1

As for UMC-11, the relative viability in the assay with BAY61-3606 + Phenformin (first compound 0.02 µM) was determined as 0.333; with BAY61-3606 + Phenformin (first compound 0.06325 µM), 0.339; with BAY61-3606 + Phenformin (first compound 0.2 µM), 0.334; with BAY61-3606 + Phenformin (first compound 0.6325 µM), 0.332; in the assay with BAY61-3606 + Phenformin (first compound 2 µM), 0.298; with Doxorubicin + Pemetrexed (first compound 0.001 µM), 0.831. Moreover, the relative viability amounted to 0.901 with Doxorubicin + Pemetrexed (first compound 0.003162 µM); 0.823 with Doxorubicin + Pemetrexed (first compound 0.01 µM); 0.645 in the assay with Doxorubicin + Pemetrexed (first compound 0.03162 µM); 0.636 in the assay with Doxorubicin + Pemetrexed (first compound 0.1 µM); 0.963 in the assay with Doxorubicin + Foretinib (first compound 0.001 µM); 1.02 in the assay with Doxorubicin + Foretinib (first compound 0.003162 µM). The relative viability with Doxorubicin + Foretinib (first compound 0.01 µM) is 1.02; with Doxorubicin + Foretinib (first compound 0.03162 µM), 0.685; in the assay with Doxorubicin + Foretinib (first compound 0.1 µM), 0.644; with BAY61-3606 + Pictilisib (first compound 0.02 µM), 0.851; with BAY61-3606 + Pictilisib (first compound 0.06325 µM), 0.799; with BAY61-3606 + Pictilisib (first compound 0.2 µM) it was 0.527. In addition, the relative viability in the assay with BAY61-3606 + Pictilisib (first compound 0.6325 µM) worked out at 0.922; in the assay with BAY61-3606 + Pictilisib (first compound 2 µM), 0.622.
